Assay [1] in a line: DPPH (α,α-diphenyl-β-picrylhydrazyl) free radical test. Type of assay: biochemical. Conditions: 20 min, 30° C., absorbance 517 nm. As to the method: DPPH is a stable free radical that when dissolved in solution forms an intense purple color. […] The extent to which the color fades can be easily measured and used to rank the relative effectiveness of different materials purported to have antioxidant properties.
Measurements were recorded for antioxidant raw materials in simple methanol solutions. Samples were prepared by dissolving antioxidants at various concentrations in methanol. After sample preparation, 125 μl of the sample or pure methanol as a control were pipetted into sample test tubes followed by 2 ml of methanol and vortexed. Then 2 ml of DPPH stock solution (0.25 mM in methanol) was added to each tube (giving a total volume of 4.125 ml for each sample) and vortexed. Immediately after addition of DPPH, test tubes were covered and placed into a 30° C. water bath for 20 minutes. After the 20 minute incubation, the absorbance of each sample was recorded at 517 nm using a Perkin Elmer Lambda 40 spectrophotometer. All samples were prepared in triplicate and their mean absorbance values were used to express the efficacy of antioxidants at various concentrations in terms of antioxidant reducing units (ARU) by using the following equation: ARU=(Absorbance Methanol Control−Absorbance sample)×10 ARU values range in magnitude from 0 for “no” efficacy to about 15 for raw materials that have high antioxidant efficacy.
Background: DPPH is a stable violet radical that fades when it is reduced.

Assay [2] relates to UV-induced ROS in EpiDerm™ Skin Model (human-derived epidermal keratinocytes). Briefly: Two photon fluorescence microscopy on EpiDerm Skin Model (UV-induced ROS down to the basal layer). Type of assay: cell-based. Conditions: result in words (FIG. 4). On the procedure:
Two photon fluorescence microscopy was then conducted on a formulation containing Vitamin E and Emblica to determine ability to inhibit formation of ROS. The methods used were similar to those as described above, using confocal microscopy to visualize cells at different depths within intact pieces of skin and then fluorescence to quantify the extent of ROS formation. In the present experiment, however, instead of using human breast skin, the skin used was the EpiDerm™ Skin Model (MatTek Corporation, Mass. USA), which consists of normal, human-derived epidermal keratinocytes which have been cultured to form a multilayered, highly differentiated model of the human epidermis. […]
Prior to UVR exposure, pieces of EpiDerm™ skin were treated with dihydrorhodamine, which partitions throughout the aqueous and lipid regions of the tissue. […] The fluorescence is subsequently detected and quantified to provide an indication of the level of UV-induced ROS formed in deeper layers of the skin. By applying antioxidants topically before irradiation ROS formation can be measured and compared to the ROS formed after a placebo lotion without antioxidants was applied to the skin. In this way, the efficacy of antioxidants to neutralize ROS within deeper layers of the skin can be measured and their relative efficiencies established. […]

The subject of another assay is human skin lipids. Briefly: Ex vivo tape strip method: inhibition of UVR-induced lipid peroxidation (LOOH). Type of assay: biochemical. Particulars: for % Inhibition of LOOH: tape strips irradiated 10 joules/cm^2 UVR, vs placebo lotion. The text has this:
To determine if antioxidants (Aox) maintain their effectiveness on skin in the presence of UVR, we devised a novel and more relevant model that utilizes human skin lipids as substrates for UVR-induced peroxidation. Lipids removed from skin on broad pieces of tape serve as the substrates for subsequent exposure to UVR. By applying a standard lotion with or without Aox to skin prior to tape-stripping, skin lipids can be collected on tape strips in the presence or absence of Aox that essentially maintains the same proximity that lipids and Aox had on skin. Following UVR exposure, the extent to which the presence of Aox protect lipids against peroxidation from ROS can be measured relative to lipids in the absence of antioxidants.
Human volunteers were recruited for the test and asked not to apply any products to their arms for at least two days before the test Prior to any product treatments, inner aspects of subjects' left and right forearms were wiped with a Kimwipe™ moistened with isopropanol to remove any residues that might be on the surface of the skin. Arms were wiped only once applying gentle pressure and then allowed to dry at least 10 minutes before proceeding. A template (90 mm×50 mm) was positioned on each inner forearm such that two areas could be clearly delineated. Using a superfine tip Sharpie™ pen, a mark was placed at each corner of the template to outline each application site, with two sites delineated per forearm. Using a fingercot, either placebo or antioxidant lotion was applied (100 mg) to a delineated site on a forearm. Care was taken to insure that products were applied evenly within the entire application area. After application, sites were allowed to air-dry for 30 minutes during which subjects were instructed not to allow any clothing to come into contact with test areas.
After lotions dried for 30 minutes, each site was tape-stripped using a 4.0 inch piece of Scotch® Brand No. 800 Prescription Label tape (1.5 inches wide). […] The piece of tape was positioned over a site and then using a finger the tape was gently pressed onto the skin to make good contact. […]
Each tape extract was assayed for total LOOH content using a Lipid Hydroperoxide Assay Kit (Kamiya Biomedical Company, Thousand Oaks, Calif.) following manufacturer's directions. Lipid hydroperoxides were then quantitated by measuring methylene blue formation at 675 nm using a spectrophotometer. Standard curves were prepared using cumene hydroperoxide and were linear over the range of LOOH detected in these experiments. […]
The extent to which antioxidant (Aox) or placebo lotions inhibited UVR-induced lipid hydroperoxide (LOOH) formation was calculated by inserting the values of LOOH determined from the four application sites on each volunteer into the following equation: […]

These results are taken from patent publication US9096882B2, “Method of selecting antioxidants for use in topically applied compositions” (MSD Consumer Care, Inc., priority 2008, dated 2015).

With `CCCCC(CC)COC(=O)C(=Cc1cc(OC)c(O)c(OC)c1)C(=O)OCC(CC)CCCC` (stereo not shown) [Diethylhexyl syringylidene malonate], in assay [1] (level 1.0% in methanol), the “ARU (antioxidant reducing units)” value is given as 5.7 ARU. In assay [2], the “antioxidant or pro-oxidant behaviour within skin exposed to UVR” value is recorded as “maintains its antioxidant capability”.
With `C[N+](C)(C)[C@@H](Cc1c[nH]c(=S)[nH]1)C(=O)[O-]` [Ergothiotaine], the “ARU (antioxidant reducing units)” value in assay [1] (level 0.1% in methanol) is recorded as 0.0 ARU.
Take `Cc1c(C)c2c(c(C)c1O)CCC(C)(CCCC(C)CCCC(C)CCCC(C)C)O2` (stereo not drawn) [Vitamin E, dl alpha tocopherol]: the “% Inhibition of LOOH” value in the assay with human skin lipids (0.05% in lotion) is −3.40%; with human skin lipids (0.10% in lotion), 28.4%; in the assay with human skin lipids (0.25% in lotion) it was 61.0%. In the assay with human skin lipids (result in words, FIG. 1), the “protection of skin lipids against UVR-induced peroxidation (FIG. 1)” value is “protects skin lipids in a dose dependant manner”. Further, the “ARU (antioxidant reducing units)” value in assay [1] (level 0.5% in methanol) was found to be 6.5 ARU.
With `CC1(C)CC[C@]2(C(=O)O)CC[C@]3(C)C(=CC[C@@H]4[C@@]5(C)C[C@@H](O)[C@H](O)[C@@](C)(CO)[C@@H]5CC[C@]43C)[C@@H]2C1` [Arjunolic acid (1%), Arjunolic acid], the “ARU (antioxidant reducing units)” value in assay [1] (level 1.0% in methanol) stood at 0.4 ARU.
For the compound `CC(=O)N[C@@H](CS)C(=O)O` [n-Acetyl cysteine], the “ARU (antioxidant reducing units)” value in assay [1] (level 0.1% in methanol) worked out at 9.9 ARU.
